Laboratory results as given in patent publication US20260183274A1, “PDK1 REGULATORY COMPOUND AND COMPOSITION CONTAINING THE SAME” (PROVIBIO CO., LTD., priority 2024, published 2026).

Columns and labels:
[1] = system: Human Gastric cancer cell, SNU-719; experiment: Relative cell viability CCK-8, SNU-719; assay type: cell-based; settings: 48 hours
Description: Human-derived breast cancer cell line MCF-7, human-derived lung cancer cell line A549, human-derived colorectal cancer cell line HCT-116, human pancreatic cancer cell line AsPC-1, glioblastoma cell line A172, and melanoma cell line Malme-3M were obtained from the Korean Cell Bank. gastric cancer cell line SNU-719, and bladder cancer cell line T24 were cultured in RPMI-1640 medium containing 10% FBS.
Following stabilization, the cells were harvested using Trypsin-EDTA treatment, centrifuged at 1,200 rpm for 3 minutes, the supernatant was removed, and the cells were resuspended in the same medium. They were then seeded into a 96-well plate (Costar 96-well cell culture plate, Corning) at 100 μL per well, and the conditions were adjusted as indicated in Table 5.
The cells were cultured in a 5% CO2 incubator at 37° C. for 24 hours, and after stabilization of the cells, each plate was washed with 200 μL of PBS per well and treated with 50 μL of culture medium per well.
(§1) After that, 10 μL of CCK-8 was added to each well, and the plate was incubated again at 37° C. in a 5% CO2 incubator for 2 hours.
(§2) In other words, when the survival rate of untreated cells (DMSO) is set at 100%, the relative cell survival rate in each group treated with the drug at different concentrations is indicated.

[2] = system: C57BL/6 mice with skin grafts; experiment: Skin graft animal model (BALB/c donor, C57BL/6 recipient); assay type: in vivo, mouse; settings: 0.15 mg/kg twice daily
Description: To evaluate the immune-suppressive effects of the compounds according to the present invention, a skin graft animal model was established, and the efficacy of the compounds was analyzed in the model.
First, female BALB/c mice aged 7 weeks and weighing approximately 20 g were used as donor animals, and female C57BL/6 mice of the same age and weight were used as recipient animals. All experimental animals were supplied by HanabioTech Co., Ltd.
Prior to the experiment, the animals were acclimatized in SPF-certified facilities for one week and then used in the experiment. The housing conditions were maintained at a temperature of 22±2° C., relative humidity of 55+10%, and a 12-hour light-dark cycle.
To establish the skin graft model, a anesthetic solution consisting of ketamine, […], and PBS in a volume ratio of 1:1:3 was administered intraperitoneally to C57BL/6 mice to induce anesthesia.
The hair on the dorsal side of the anesthetized mice was removed and disinfected, followed by excision of the full-thickness skin using an 8 mm punch. Subsequently, skin of the same size was harvested from donor mice (BALB/c) and transplanted. […]
Subsequently, the proportions of CD3- and B220-positive cells were analyzed using a flow cytometer.

[3] = target: T1, PDK1-PKD protein (Protein Kinase Domain fragment) (Homo sapiens, UniProt O15530); experiment: Microscale Thermophoresis (MST) binding affinity, PDK1-PKD; settings: in the presence of ATP; FIG. 48; read-out: Dissociation constant (Kd), PDK1-PKD
T1 construct: the Protein Kinase Domain (PKD) fragment; inferred from Ni-NTA purification; made in house; host or cells: Sf9 insect cells, baculovirus expression system
T1 sequence (O15530 82-342 limits assumed): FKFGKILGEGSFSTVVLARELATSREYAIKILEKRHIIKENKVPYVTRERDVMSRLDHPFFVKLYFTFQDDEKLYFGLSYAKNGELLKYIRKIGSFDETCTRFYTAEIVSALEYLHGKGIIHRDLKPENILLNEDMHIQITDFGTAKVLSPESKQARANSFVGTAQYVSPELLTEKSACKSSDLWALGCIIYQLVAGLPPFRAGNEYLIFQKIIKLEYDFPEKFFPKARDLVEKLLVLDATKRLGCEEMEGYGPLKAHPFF
Description: Microscale Thermophoresis (MST) analysis was performed to quantitatively measure the binding affinity between PDK1 protein and substrate peptides (PDKTide) or the company-developed low-molecular-weight compound (GO88).
The target proteins were the full-length (PDK1-FL) protein of human-derived PDK1 and the Protein Kinase Domain (PKD) fragment, which were expressed using a baculovirus expression system in insect cell lines (Sf9).
The purity of the purified proteins was confirmed by SDS-PAGE and Coomassie Brilliant Blue staining.
The purified protein was labeled with a fluorescent label using the Monolith NT™ RED-NHS Protein Fluorescent Labeling Kit (NanoTemper).
Specifically, 20 μM of the protein was dissolved in PBS (pH 7.4) buffer, mixed with the fluorescent reagent, and reacted at room temperature under dark conditions for 30 minutes. The mixture was then buffered with MST analysis buffer (50 mM HEPES, 150 mM NaCl, 1 mM DTT, 0.05% Tween-20, pH 7.5). […]
The reaction samples were injected into an MST-specific capillary (NanoTemper) and analyzed using a Monolith NT.115 device (NanoTemper) under laser intensity conditions. […]
The measured data were analyzed using MO.Affinity Analysis software (NanoTemper), and the dissociation constant (Kd) was calculated from the binding curve.

[4] = system: Human multiple myeloma, KMS12PE; experiment: Relative cell viability, KMS12PE; assay type: cell-based; settings: KMS-12-PE
Description: as §1, §2

Row | Structure (SMILES) | viability at 1 µM ([1]; 1 μM) | viability at 10 µM ([1]; 10 μM) | viability at 30 µM ([1]; 30 μM) | viability at 50 µM ([1]; 50 μM) | Animals with graft pinkening and good blood flow ([2]; day 10 post-transplantation) | Animals with graft pinkening and good blood flow ([2]; day 15 post-transplantation) | Kd [3] | viability at 10 µM [4]
1 | Nc1ncccc1C(=O)NCCCCCCCCCCCCN1CCNCC1 [Compound 14, 2-Amino-N-(12-(piperazin-1-yl)dodecyl)nicotinamide] | 49.9% | 47.8% | 44.4% | 45.5% | three out of five | one out of five | ~371 nM | –
2 | Nc1ncccc1C(=O)NCCCCCCCCCCCCF [Compound 57, 2-Amino-N-(12-fluoro-dodecyl)-nicotinamide] | – | – | – | – | – | – | – | 41.7%
